Measured values published in US20250214947A1, “3,4-DIHYDROQUINOXALINE-2-CARBOXIMIDE DERIVATIVE COMPOUND AND PHARMACEUTICAL COMPOSITION COMPRISING SAME FOR PREVENTING OR TREATING CANCER DISEASE” (Cureverse Incorporated, priority 2022, published 2025).

How the values were obtained:
[1] = target: T1, HDAC8 (Homo sapiens, UniProt Q9BY41); test: HDAC8 inhibitory activity analysis (in vitro), RFU analysis, HDAC Fluorogenic assay kit; assay type: biochemical; conditions: 10 μM; compared with TSA or SAHA
T1 construct: purchased BPS bioscience
T1 sequence (Q9BY41 1-377): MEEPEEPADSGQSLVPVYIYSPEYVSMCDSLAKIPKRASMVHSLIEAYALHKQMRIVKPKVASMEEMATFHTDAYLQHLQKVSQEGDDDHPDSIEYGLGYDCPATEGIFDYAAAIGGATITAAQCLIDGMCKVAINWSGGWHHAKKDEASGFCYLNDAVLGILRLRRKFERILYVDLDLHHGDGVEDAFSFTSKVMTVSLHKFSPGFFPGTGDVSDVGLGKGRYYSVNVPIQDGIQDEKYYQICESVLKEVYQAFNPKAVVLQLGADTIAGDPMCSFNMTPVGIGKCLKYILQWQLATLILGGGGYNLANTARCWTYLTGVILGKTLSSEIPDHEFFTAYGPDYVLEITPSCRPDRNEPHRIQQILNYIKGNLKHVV
Experimental: The compound of the Example was diluted to 1 mM (1% DMSO concentration) using DMSO to obtain a final concentration of 10 μM, and prepared by diluting 1/10 with assay buffer. In a 96-well black round-bottom plate, 5 μL of the diluted compound of the Example, 5 μL of the diluted HDAC substrate 2A, 5 μL of BSA (1 mg/mL), 5 µL of the HDAC8 enzyme diluted to an appropriate concentration, and 30 μL of assay buffer were added, and the enzyme reaction was performed at 37° C. for 30 minutes. […] Afterwards, 50 μL of 2×HDAC developer was added to each well. After reacting for 15 minutes at room temperature, the fluorescence values at excitation wavelengths of 350-380 nm and emission wavelengths of 440-460 nm were measured using a microplate reader (Synergy Neo).

[2] = tested on: Liver cancer cells Huh-7; test: Liver cancer cell growth inhibition, CellTiter-Glo Luminescent Cell Viability Assay; assay type: cell-based; conditions: various concentrations; day 1; FIG. 6
Experimental: In addition, an analysis of liver cancer growth inhibitory activity was performed. Liver cancer cells Huh-7 cells were dispensed in a 96-well plate at 1×10^4 cells/ml, and after 20 hours, PCI34051, Example 27, and Example 35 were added at various concentrations, and cultured for 24 and 48 hours at 37° C. in a 5% CO2 atmosphere. After culturing, 100 l CellTiter-Glo Luminescent Cell Viability Assay reagent was added and the luminescence signal was measured after 0.5-1 hour. The luminescence signal was measured using IVIS [PerkinElmer, (Waltham, USA)].

[3] = tested on: PC-3 prostate cancer cells; test: Prostate cancer cell growth inhibition, CCK-8 assay; assay type: cell-based, human; conditions: various concentrations, FIG. 1
Experimental: PC-3, a human-derived prostate cancer cell line, was cultured with RPMI1640 (10% fetal bovine serum, 1% Penicillin Streptomycin) culture medium at 37° C., 5% CO2 condition. All cells in the experiment were subcultured when they reached a confluency of approximately 80% to 90%, and only cells that had not passed 20 passages were used.
After culturing, 10 L CCK-8 reagent was added and the absorbance was measured after 1 hour. The absorbance was measured at 450 nm using a microplate reader [BMG Labtech (Offenburg, Germany)].

[4] = target: HDAC2 (Homo sapiens, UniProt Q92769); test: Selective inhibitory effect, HDAC Fluorogenic assay kit, HDAC2; conditions: read-out: HDAC2 enzyme activity (%)
Experimental: (§1) For analysis, HDAC substrate 3 was diluted in buffer to a concentration of 200 μM and used in HDAC 1, 2, 3, 6, and 10 assays, HDAC substrate 2A was diluted in buffer to a concentration of 200 μM and used in HDAC 4, 7, 9, and 11 assays, HDAC substrate 2A was diluted in buffer to a concentration of 20 μM and used in HDAC 8 assays. For the HDAC 11 assay, a dedicated buffer included in the kit was used separately, and the same buffer was used for the remaining assays. The compound of the Example was diluted to 1 mM (1% DMSO concentration) using DMSO to obtain a final concentration of 10 μM, and prepared by diluting 1/10 with assay buffer. In a 96-well black round-bottom plate, 5 μL of the diluted compound of the Example, 5 μL of the diluted HDAC substrate, 5 μL of BSA (1 mg/ml), 5 μL of the HDAC enzyme diluted to the appropriate concentration, and 30 μL of assay buffer were added, and the enzyme reaction was performed at 37° C. for 30 minutes. […] Afterwards, 50 μL of 2×HDAC developer was added to each well. After reacting for 15 minutes at room temperature, the fluorescence values at excitation wavelengths of 350-380 nm and emission wavelengths of 440-460 nm were measured using a microplate reader (Synergy Neo).

[5] = target: T2, HDAC6 (Homo sapiens, UniProt Q9UBN7); test: Selective inhibitory effect, HDAC Fluorogenic assay kit, HDAC6; conditions: read-out: HDAC6 enzyme activity (%)
T2 sequence (Q9UBN7 1-1215): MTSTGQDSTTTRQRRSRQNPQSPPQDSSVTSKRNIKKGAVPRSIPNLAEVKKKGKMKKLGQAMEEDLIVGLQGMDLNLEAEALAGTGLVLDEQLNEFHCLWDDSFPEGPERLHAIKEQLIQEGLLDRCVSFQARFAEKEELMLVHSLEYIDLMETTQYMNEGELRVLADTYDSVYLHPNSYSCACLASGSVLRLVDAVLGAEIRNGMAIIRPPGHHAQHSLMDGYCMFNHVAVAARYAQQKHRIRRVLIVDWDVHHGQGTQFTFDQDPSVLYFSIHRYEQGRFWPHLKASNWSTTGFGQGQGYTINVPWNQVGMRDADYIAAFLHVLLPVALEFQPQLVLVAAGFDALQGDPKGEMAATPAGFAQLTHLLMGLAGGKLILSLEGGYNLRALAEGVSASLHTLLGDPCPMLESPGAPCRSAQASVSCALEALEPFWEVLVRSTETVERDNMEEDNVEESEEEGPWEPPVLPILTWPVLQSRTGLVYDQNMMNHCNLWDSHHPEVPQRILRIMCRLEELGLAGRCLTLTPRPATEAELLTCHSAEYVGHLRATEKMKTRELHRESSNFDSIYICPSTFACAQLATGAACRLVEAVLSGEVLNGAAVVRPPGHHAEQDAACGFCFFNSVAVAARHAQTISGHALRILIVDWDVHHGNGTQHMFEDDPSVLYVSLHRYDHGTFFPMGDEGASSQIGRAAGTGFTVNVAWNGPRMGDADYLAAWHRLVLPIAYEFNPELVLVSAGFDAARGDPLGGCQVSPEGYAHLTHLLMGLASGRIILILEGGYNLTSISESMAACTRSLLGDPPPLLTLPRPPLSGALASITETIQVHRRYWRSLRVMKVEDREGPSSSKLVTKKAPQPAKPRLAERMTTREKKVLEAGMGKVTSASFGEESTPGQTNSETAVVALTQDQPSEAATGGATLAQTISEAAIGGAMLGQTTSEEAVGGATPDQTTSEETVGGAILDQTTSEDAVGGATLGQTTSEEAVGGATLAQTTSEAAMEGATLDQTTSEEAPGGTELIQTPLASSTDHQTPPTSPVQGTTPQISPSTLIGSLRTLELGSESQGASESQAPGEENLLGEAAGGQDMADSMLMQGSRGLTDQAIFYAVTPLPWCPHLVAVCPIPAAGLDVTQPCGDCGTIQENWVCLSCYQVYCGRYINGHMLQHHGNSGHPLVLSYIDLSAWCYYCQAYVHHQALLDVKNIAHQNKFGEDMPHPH
Experimental: as §1

[6] = target: T3, HDAC10 (Homo sapiens, UniProt Q969S8); test: Selective inhibitory effect, HDAC Fluorogenic assay kit, HDAC10; conditions: read-out: HDAC10 enzyme activity (%)
T3 sequence (Q969S8 1-669): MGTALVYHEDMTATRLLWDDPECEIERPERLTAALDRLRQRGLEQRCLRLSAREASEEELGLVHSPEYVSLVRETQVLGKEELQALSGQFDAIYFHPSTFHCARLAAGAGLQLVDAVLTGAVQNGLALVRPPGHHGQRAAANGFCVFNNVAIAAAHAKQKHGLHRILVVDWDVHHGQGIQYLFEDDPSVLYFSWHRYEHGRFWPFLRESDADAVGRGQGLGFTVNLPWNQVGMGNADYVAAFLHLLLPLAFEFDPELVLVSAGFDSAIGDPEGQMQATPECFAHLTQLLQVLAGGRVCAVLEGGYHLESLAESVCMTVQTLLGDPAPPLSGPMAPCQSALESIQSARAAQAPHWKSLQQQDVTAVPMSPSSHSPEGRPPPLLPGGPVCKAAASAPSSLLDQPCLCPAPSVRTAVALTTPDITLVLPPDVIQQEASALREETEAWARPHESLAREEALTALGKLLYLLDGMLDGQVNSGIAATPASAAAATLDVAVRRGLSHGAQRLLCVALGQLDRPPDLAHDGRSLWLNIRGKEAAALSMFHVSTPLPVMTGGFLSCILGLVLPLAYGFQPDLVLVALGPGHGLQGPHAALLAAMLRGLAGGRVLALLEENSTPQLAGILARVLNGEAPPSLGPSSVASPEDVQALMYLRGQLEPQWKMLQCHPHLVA
Experimental: as §1

[7] = target: HDAC1 (Homo sapiens, UniProt Q13547); test: Selective inhibitory effect, HDAC Fluorogenic assay kit, HDAC1; conditions: read-out: HDAC1 enzyme activity (%)
HDAC1, sequence (Q13547 whole entry): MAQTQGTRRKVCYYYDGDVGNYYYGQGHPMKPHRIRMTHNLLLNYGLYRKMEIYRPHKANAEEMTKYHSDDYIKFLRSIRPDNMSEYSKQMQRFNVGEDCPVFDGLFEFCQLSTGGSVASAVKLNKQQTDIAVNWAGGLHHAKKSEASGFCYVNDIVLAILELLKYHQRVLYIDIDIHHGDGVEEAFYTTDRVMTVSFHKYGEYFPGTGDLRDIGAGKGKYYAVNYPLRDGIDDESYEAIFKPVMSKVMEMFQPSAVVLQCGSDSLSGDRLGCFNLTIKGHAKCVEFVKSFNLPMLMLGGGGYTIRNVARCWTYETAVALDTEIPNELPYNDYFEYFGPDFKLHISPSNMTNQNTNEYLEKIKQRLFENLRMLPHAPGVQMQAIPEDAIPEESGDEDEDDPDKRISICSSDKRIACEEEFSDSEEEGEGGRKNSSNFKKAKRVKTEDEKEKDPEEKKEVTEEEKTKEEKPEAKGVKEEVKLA
Experimental: as §1

HDAC2, sequence (Q92769 whole entry): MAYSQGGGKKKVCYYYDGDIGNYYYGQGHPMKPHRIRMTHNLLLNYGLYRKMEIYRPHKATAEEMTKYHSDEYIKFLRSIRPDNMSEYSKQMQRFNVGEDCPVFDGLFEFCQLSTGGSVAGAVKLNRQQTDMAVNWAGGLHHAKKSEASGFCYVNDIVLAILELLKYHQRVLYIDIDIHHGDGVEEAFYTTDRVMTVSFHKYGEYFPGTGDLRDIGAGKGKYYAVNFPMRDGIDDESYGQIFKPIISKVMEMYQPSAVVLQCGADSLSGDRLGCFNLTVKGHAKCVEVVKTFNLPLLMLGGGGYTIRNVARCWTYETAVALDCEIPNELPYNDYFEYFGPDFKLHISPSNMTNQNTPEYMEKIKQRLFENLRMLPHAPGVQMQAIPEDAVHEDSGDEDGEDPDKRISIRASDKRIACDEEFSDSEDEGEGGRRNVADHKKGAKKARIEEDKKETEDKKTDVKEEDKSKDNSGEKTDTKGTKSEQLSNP

## Cc1cc2nc(C(=O)Nc3cc(-c4ccc(Br)cc4)no3)c(=O)n(C[C@H](O)[C@H](O)[C@H](O)CO)c2cc1C [Example 10, N-(3-(4-bromophenyl)isoxazol-5-yl)-6,7-dimethyl-3-oxo-4-((2S,3S,4R)-2,3,4,5-tetrahydroxypentyl)-3,4-dihydroquinoxaline-2-carboxamide]
[1]
  inhibitory activity against HDAC8 (in words): inhibitory activity similar to TSA or SAHA

## Cc1cc2nc(C(=O)NCc3ccc4[nH]cnc4c3)c(=O)n(C[C@H](O)[C@H](O)[C@H](O)CO)c2cc1C [Example 34, N-((1H-benzo[d]imidazol-5-yl)methyl)-6,7-dimethyl-3-oxo-4-((2S,3S,4R)-2,3,4,5-tetrahydroxypentyl)-3,4-dihydroquinoxaline-2-carboxamide]
[1]
  inhibitory activity against HDAC8 (in words): inhibitory activity similar to TSA or SAHA

## Cc1cc2nc(C(=O)Nc3nc4c(F)cccc4[nH]3)c(=O)n(C[C@H](O)[C@H](O)[C@H](O)CO)c2cc1C [Example 35, N-(4-fluoro-1H-benzo[d]imidazol-2-yl)-6,7-dimethyl-3-oxo-4-((2S,3S,4R)-2,3,4,5-tetrahydroxypentyl)-3,4-dihydroquinoxaline-2-carboxamide]
[2]
  Huh-7 cell viability (in words): concentration-dependent inhibition of cancer cell viability
[3]; 24 hours
  PC-3 cell viability after 24 hours (in words): concentration-dependent inhibition of cancer cell viability
[3]; 48 hours
  PC-3 cell viability after 48 hours (in words): cell viability was restored
[1]
  inhibitory activity against HDAC8 (in words): inhibitory activity similar to TSA or SAHA

## Cc1cc2nc(C(=O)Nc3ccc(C(=O)NO)cc3)c(=O)n(C[C@H](O)[C@H](O)[C@H](O)CO)c2cc1C [Example 48, N-(4-(hydroxycarbamoyl)phenyl)-6,7-dimethyl-3-oxo-4-((2S,3S,4R)-2,3,4,5-tetrahydroxypentyl)-3,4-dihydroquinoxaline-2-carboxamide]
[1]
  inhibitory activity against HDAC8 (in words): inhibitory activity similar to TSA or SAHA

## Cc1cc2nc(C(=O)NCc3ccc(CC(=O)NO)cc3)c(=O)n(C[C@H](O)[C@H](O)[C@H](O)CO)c2cc1C [Example 49, N-(4-(2-(hydroxyamino)-2-oxoethyl)benzyl)-6,7-dimethyl-3-oxo-4-((2S,3S,4R)-2,3,4,5-tetrahydroxypentyl)-3,4-dihydroquinoxaline-2-carboxamide]
[1]
  inhibitory activity against HDAC8 (in words): inhibitory activity similar to TSA or SAHA

## Cc1cc2nc(C(=O)Nc3cc(C(=O)NO)ccc3C)c(=O)n(C[C@H](O)[C@H](O)[C@H](O)CO)c2cc1C [Example 51, N-(5-(hydroxycarbamoyl)-2-methylphenyl)-6,7-dimethyl-3-oxo-4-((2S,3S,4R)-2,3,4,5-tetrahydroxypentyl)-3,4-dihydroquinoxaline-2-carboxamide]
[1]
  inhibitory activity against HDAC8 (in words): inhibitory activity similar to TSA or SAHA

## COc1ccc(Cn2ccc3ccc(C(=O)NO)cc32)cc1 [PCI-34051, N-hydroxy-1-(4-methoxybenzyl)-1H-indole-6-carboxamide, reference compound]
[2]
  Huh-7 cell viability (in words): concentration-dependent inhibition of cancer cell viability

## CC(/C=C/C(=O)NO)=C\[C@@H](C)C(=O)c1ccc(N(C)C)cc1 [TSA, Trichostatin A, reference compound]
[4]
  remaining activity at 10 µM: 0.7%
[5]
  remaining activity at 10 µM: 1.11%
[6]
  remaining activity at 10 µM: 1.21%
[7]
  remaining activity at 10 µM: 1.22%
